Patent US20100226857A1, “TUMOR CELL DIFFERENTIATION AGENTS AS CHEMICAL INHIBITORS AND TREATMENTS FOR INTRACELLULAR PARASITES” (priority 2006, published 2010)
Values after ≈ are worked out from the molar mass of the structure shown. Where two headings read alike, the source gives them in different places.

Assays:
[1] = test system: T. gondii tachyzoites; assay: T. gondii tachyzoite proliferation assay in HS68 cells (tachyzoite count); type: cell-based, Toxoplasma gondii; conditions: for times tachyzoites are more sensitive than human tumor cells: tachyzoite IC50 vs literature tumor cell concentrations
Protocol: Parasite propagation—The RH strain of Toxoplasma gondii was grown in BM bovine macrophage cells or HS68 human foreskin fibroblast cells obtained from the American Type Culture Collection (Rockville, Md.). HS68 cells were grown in RPMI 1640 medium (Mediatech, Inc., Herndon, Va.) plus 10% fetal bovine serum (Atlanta Biologicals, Lawrenceville, Ga.), 1 mM sodium pyruvate and 100 U/ml each of penicillin and streptomycin. Parasites were harvested from infected cultures of HS68 cells growing in T-75 cm^2 flasks. After removing the culture medium, the cells were scraped into 5 ml of phosphate-buffered saline and a cell lysate obtained by passing through a 26-gauge needle. To purify the parasites, the cell lysate was filtered through a 3 micron (micrometer) filter.
(§1) Proliferation assays: HS68 cells were replica plated in 48-well dishes, and grown to confluence prior to infection with 5-10×10^4 freshly purified T. gondii tachyzoites/well. After 2 hours, the media and non-infective tachyzoites were removed, and replaced with RPMI medium containing 2% fetal bovine serum plus 1 mM sodium pyruvate, penicillin (100 U), streptomycin (100 U) and test agent or a vehicle control. The proliferation assays were terminated 48-72 hours post-infection when the untreated cells were heavily infected. All of the culture media were removed from the wells, and the tachyzoites in the media were fixed by dilution (1:1) into phosphate-buffered saline containing 10% formaldehyde. The tachyzoites were collected by brief centrifugation (30 seconds, […]) at room temperature using a tabletop microfuge. The tachyzoites were resuspended in 100 ul of phosphate-buffered saline, and duplicate aliquots were counted using a hemocytometer. […] The monolayer of HS68 cells in each well was fixed and stained for 5 minutes using a solution of 50% ethanol-5% formaldehyde-0.1% crystal violet in 0.85% sodium chloride, then rinsed with water, and air-dried. The minimum inhibitory concentration (MIC) of compounds that suppressed Toxoplasma-induced lysis of the HS68 cells was determined visually by counting the number of plaques/well in the monolayer.

[2] = test system: T. gondii; assay: Plaque suppression / protection of HS68 monolayer from T. gondii; type: cell-based, Toxoplasma gondii; conditions: for state of HS68 monolayer of T. gondii-infected treated cells: 1 uM, 48 hours; for MIC: Toxoplasma gondii, read-out: MIC (uM) Plaque Suppression; for MIC / MIC (uM) Plaque Suppression: RH strain T. gondii in HS68 cells, 48-well plate, mean+/-SEM; for MIC IC50 (ratio MIC/IC50): MIC plaque suppression relative to IC50 tachyzoite count
Protocol: as §1

[3] = test system: HS68 human foreskin fibroblast cells; assay: Toxicity to HS68 host cells; type: cell-based; conditions: for toxicity to HS68 cells at highest concentration tested: 10 uM
[4] = test system: Cryptosporidium parvum; assay: Real-time PCR analysis of C. parvum oocyst production in infected HCT-8 cells; type: cell-based; conditions: 48 hours, apicidin 70 ng/ml, SAHA 2.5 ug/ml
Protocol: Monolayer cultures of HCT-8 human colon cells growing in 24-well plastic tissue culture dishes were infected with C. parvum oocysts for 3 hours. […] The cells were harvested, and DNA was extracted. The DNA was analyzed for the production of C. parvum oocysts from the infected cells using real-time PCR and DNA primers that specifically amplify the C. parvum oocysts wall protein (COWP).

[5] = test system: T. gondii tachyzoites; assay: In vivo acute toxoplasmosis in mice (survival); design: species or system Toxoplasma gondii; CD-1 mice; conditions: for control of acute toxoplasmosis in mice: TSA 0.5 mg/kg, SAHA 50 mg/kg, scriptaid 3.5 mg/kg i.p. once daily, valproic acid 300 mg/kg oral daily; for median survival: mice
Protocol: Specifically, female CD-1 mice (20 g) were inoculated in the sub-scapular region with 5,000 T. gondii tachyzoites on Day 0. […] The dose of scriptaid was not optimized in this experiment. In this study, valproic acid was administered orally in the drinking water at a dose of 300 mg/kg. Survival was monitored twice daily beginning on day 9 of the study. The results are depicted graphically in FIG. 5A and in tabular form in FIG. 5B.

[6] = test system: human tumor cell lines; conditions: cited from earlier work
[7] = test system: MCF-7 human breast cancer cells; assay: ESR free radical (ROS) measurement in MCF-7 cell suspensions with DMPO; type: cell-based
Protocol: Free Radical Measurements: All ESR measurements were conducted using a Bruker EMIR spectrometer (Bruker Instruments Inc., Billerica, Mass.) and a flat-cell assembly. Hyperfine couplings were measured (to 0.1 G) directly from magnetic field separation using potassium tetraperoxochromate (K3CrO8) and 1,1-diphenyl-2-picrylhydrazyl as reference standards. The relative radical concentration was estimated by multiplying half of the peak height by (ΔHpp)^2, where (ΔHpp) represents peak-to-peak width. The Acquisit program was used for data acquisitions and analyses. MCF-7 cells (2.0×10^6 cells/60-mm^2 dish) were harvested 48 h after plating by trypsinization and collected at room temperature by centnfugation (225 g, 5 min). Cells were washed once with ice-cold PBS and resuspended in ice-cold PBS at 2×10^6 cells/ml. Radical production was measured in the presence of the spin trap 5,5-dimethyl-1-pyrroline-N-oxide (DMPO; Aldrich Chemical Co., Milwaukee, Wis.). DMPO (200 mM) and 1×10^6 cells test agents were mixed in 1.0 ml of PBS, incubated at 37° C. for 5 mm, and then transferred to a flat cell for ESR measurements.

[8] = test system: MCF-7 cells; assay: Comet assay for DNA damage; type: cell-based, human
Protocol: Comet Analysis: The comet assay is a single-cell gel electrophoresis method for measuring DNA damage. MCF-7 cells (2×10^5/35-mm^2 dish) were treated 12 h after plating. Twenty-four hours later, the cells were harvested and resuspended (1.5×10^5 cells/ml) in ice-cold PBS. The PBS cell suspension (50 ul) was mixed with 500 ul of 42° C. low-melting point agarose, spread evenly (75 ul) onto a Comet Slide (Trevigen, Gaithersburg, Md.), and allowed to harden. The slides were then immersed in ice-cold lysis solution (Trevigen) for 45 mm to lyse the cells and then transferred to freshly prepared alkali solution (300 mM NaOH and 1 mM EDTA, […]) for 45 mM. at room temperature to denature the DNA. Electrophoresis was performed at 4° C. Slides were air-dried overnight at room temperature and then stained with SYBR Green (Trevigen). Comets were visualized by fluorescence microscopy at 630× magnification with the aid of an antifade solution. Comet images were analyzed using the LAI Automated Comet Assay Analysis System (Loats Associates, Inc., Westminster, Md.). DNA damage was quantified in 80 comets per treatment/experiment using the tail moment [Tail moment [(% DNA) (distance traveled)]].

[9] = RH strain T. gondii in HS68 cells, 48-well plate, 48-72 hours post-infection, mean+/-SEM, read-out: IC50 (uM) Tachyzoite Count
[10] = Toxoplasma gondii, RH strain T. gondii in HS68 cells, 48-well plate, 48-72 hours post-infection, mean+/-SEM, read-out: IC50 (uM) Tachyzoite Count

| Molecule | times tachyzoites are more sensitive than human tumor cells [1] | state of HS68 monolayer of T. gondii-infected treated cells [2] | MIC [2] | toxicity to HS68 cells at highest concentration tested [3] | control of acute toxoplasmosis in mice [5] | IC50 [1, 9] | MIC IC50 (ratio MIC/IC50) [2] | MIC (uM) Plaque Suppression [2] | IC50 [1, 10] | further results |
| --- | --- | --- | --- | --- | --- | --- | --- | --- | --- | --- |
| O=C(CCCCCCC(=O)Nc1ccccc1)NO [SAHA, suberoylanilide hydroxamic acid] | 10-200 times | completely intact | 0.4 ± 0.1 µM (≈ 0.106 µg/mL) | no discernable toxicity | showed in vivo efficacy |  |  |  |  | number of oocysts/ml (mean ± S.D. n = 6) [4]: 252.8 ± 280 oocysts/ml; % Reduction in oocysts numbers ([4]; vs 0.1% DMSO): 96.2%; concentration reducing tumor cell numbers and inducing tumor cell apoptosis ([6]; variety of human tumor cell lines in tissue culture): 1 to 20 µM |
| 4-phenylbutyrate |  |  |  |  |  | 5350 ± 2750 µM | 3.1 | 16,700 ± 3300 uM |  |  |
| O=C(CCCCCN1C(=O)c2cccc3cccc(c23)C1=O)NO [Scriptaid] | 80-1500 times | completely intact | 0.225 ± 0.025 µM (≈ 0.0734 µg/mL) | non-toxic | showed in vivo efficacy |  | 5.8 |  | 0.039 ± 0.011 µM | IC50 ([1]; Toxoplasma gondii, RH strain in HS68 cells, average of independent experiments, read-out: IC50 T. gondii tachyzoites): 0.037 µM; low concentrations stimulating tachyzoite numbers ([1]; biphasic response, FIG. 4): 1 to 10 nM; daily dose that can extend the life of mice infected with RH T. gondii ([5]; for 14 days): about 3.5 mg/kg; IC50 levels reducing tumor cell proliferation in vitro [6]: 1 to 20 µg/mL; IC50 ([6]; read-out: IC50 levels reducing tumor cell proliferation in vitro): 3 to 60 µM |
| CC(/C=C/C(=O)NO)=C\[C@@H](C)C(=O)c1ccc(N(C)C)cc1 [TSA, trichostatin A] |  |  |  |  | showed in vivo efficacy | 0.041 ± 0.001 µM | 4.3 | 0.175 ± 0.025 µM (≈ 0.0529 µg/mL) |  | concentration that eliminated tachyzoites and plaque formation ([1]; T. gondii infected HS68 cells): 200 nM; concentrations giving dramatic decrease in tachyzoite numbers ([1]; p<0.05): > 100 nM; concentration at which apoptotic HS68 cells were evident [3]: 500 nM; relative peak heights of the ESR signals (mean±range, n=2) ([7]; 200 nM, 1×10^6 MCF-7 cells, 5 min at 37° C.): 99±1 mm |
| CCCC(CCC)C(=O)[O-].[Na+] [Valproic acid, sodium valproate] |  |  | 8300 ± 1000 µM |  | ineffective |  | 5.2 |  | 1600 ± 1120 µM | IC50 ([1]; Toxoplasma gondii, RH strain in HS68 cells, read-out: IC50 range of carboxylate inhibitors): 1000 to 5000 µM; therapeutic effect against RH T. gondii in mice ([5]; doses up to 600 mg/kg/day, oral or intraperitoneal): not therapeutic; median survival ([5]; i.p. 400 mg/kg and 600 mg/kg divided into 2 daily doses): 10 days; median survival ([5]; oral dose of 600 mg/kg): 12 days |
| Oc1cccc2cccnc12 [NSC2039, 8-quinolinol] |  |  |  |  |  |  |  |  |  | ESR signal indicative of ROS production in MCF-7 cells ([7]; 10 uM NSC3852, 8 uM NSC2039): no signal was produced; DNA damage (comet tail moment) [8]: did not induce DNA damage |
